In ChEMBL document CHEMBL1135045, “alpha(1)-Adrenoceptor antagonists. Rational design, synthesis and biological evaluation of new trazodone-like compounds” (Bioorg Med Chem Lett, 2002):

What was measured:
[1] = biological target: T1, Adrenergic receptor alpha-2 (Rattus norvegicus, UniProt P22086+P19328+P22909); test: Binding affinity by its ability to displace [3H]rauwolscine radioligand from Alpha-2 adrenergic receptor on rat cerebral cortex; type: tissue-based
T1 sequence (P22086 whole entry): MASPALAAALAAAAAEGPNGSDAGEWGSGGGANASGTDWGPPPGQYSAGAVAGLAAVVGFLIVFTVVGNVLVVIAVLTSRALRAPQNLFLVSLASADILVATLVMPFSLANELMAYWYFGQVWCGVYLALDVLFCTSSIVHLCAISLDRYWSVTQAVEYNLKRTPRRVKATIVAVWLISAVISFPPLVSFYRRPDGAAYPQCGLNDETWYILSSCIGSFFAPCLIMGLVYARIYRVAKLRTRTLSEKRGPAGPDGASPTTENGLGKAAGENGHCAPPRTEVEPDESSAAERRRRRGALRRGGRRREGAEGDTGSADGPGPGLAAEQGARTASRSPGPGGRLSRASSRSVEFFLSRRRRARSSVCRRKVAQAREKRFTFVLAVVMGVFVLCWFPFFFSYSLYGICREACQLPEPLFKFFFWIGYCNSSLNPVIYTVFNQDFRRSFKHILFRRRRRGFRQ
T1 sequence (P19328 whole entry): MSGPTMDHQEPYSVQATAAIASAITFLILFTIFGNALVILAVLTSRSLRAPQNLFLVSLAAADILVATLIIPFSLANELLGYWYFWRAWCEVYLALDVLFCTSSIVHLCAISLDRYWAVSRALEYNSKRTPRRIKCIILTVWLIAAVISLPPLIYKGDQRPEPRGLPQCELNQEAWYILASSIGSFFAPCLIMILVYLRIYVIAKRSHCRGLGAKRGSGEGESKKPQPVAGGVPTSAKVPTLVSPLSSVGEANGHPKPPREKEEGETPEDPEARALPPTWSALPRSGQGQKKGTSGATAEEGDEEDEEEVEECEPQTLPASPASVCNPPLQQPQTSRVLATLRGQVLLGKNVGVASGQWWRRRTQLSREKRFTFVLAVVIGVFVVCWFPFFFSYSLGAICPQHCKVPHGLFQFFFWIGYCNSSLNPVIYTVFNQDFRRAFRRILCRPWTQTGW
T1 sequence (P22909 whole entry): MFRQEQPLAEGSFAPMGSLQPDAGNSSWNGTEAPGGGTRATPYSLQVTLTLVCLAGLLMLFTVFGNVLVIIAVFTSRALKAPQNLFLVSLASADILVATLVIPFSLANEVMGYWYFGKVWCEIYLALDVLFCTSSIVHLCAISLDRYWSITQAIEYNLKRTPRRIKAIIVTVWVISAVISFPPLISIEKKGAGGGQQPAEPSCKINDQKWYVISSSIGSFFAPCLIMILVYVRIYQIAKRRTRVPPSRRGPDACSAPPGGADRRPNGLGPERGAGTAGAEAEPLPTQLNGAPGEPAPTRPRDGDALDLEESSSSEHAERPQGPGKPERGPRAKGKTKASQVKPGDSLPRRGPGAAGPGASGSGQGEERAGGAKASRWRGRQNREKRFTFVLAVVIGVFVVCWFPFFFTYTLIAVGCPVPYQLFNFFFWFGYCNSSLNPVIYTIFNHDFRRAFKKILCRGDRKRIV

[2] = biological target: T2, Adrenergic receptor alpha-1 (Rattus norvegicus, UniProt P15823+P23944+P43140); test: Binding affinity by its ability to displace [3H]prazosin radioligand from Alpha-1 adrenergic receptor on rat cerebral cortex; type: tissue-based
T2 sequence (P15823 whole entry): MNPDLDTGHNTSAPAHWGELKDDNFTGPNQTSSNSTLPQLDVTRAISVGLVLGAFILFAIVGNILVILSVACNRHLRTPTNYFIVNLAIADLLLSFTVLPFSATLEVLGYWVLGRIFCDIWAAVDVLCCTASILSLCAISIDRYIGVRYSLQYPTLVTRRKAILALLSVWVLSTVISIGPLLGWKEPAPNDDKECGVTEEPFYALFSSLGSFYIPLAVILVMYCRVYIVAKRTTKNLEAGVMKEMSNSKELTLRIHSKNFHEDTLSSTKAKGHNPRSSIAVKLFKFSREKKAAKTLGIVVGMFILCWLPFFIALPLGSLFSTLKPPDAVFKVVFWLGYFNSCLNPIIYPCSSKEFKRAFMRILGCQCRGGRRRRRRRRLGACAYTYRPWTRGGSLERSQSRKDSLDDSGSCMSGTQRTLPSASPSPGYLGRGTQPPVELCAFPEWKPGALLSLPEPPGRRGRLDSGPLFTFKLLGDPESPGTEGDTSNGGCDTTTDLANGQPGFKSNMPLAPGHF
T2 sequence (P23944 whole entry): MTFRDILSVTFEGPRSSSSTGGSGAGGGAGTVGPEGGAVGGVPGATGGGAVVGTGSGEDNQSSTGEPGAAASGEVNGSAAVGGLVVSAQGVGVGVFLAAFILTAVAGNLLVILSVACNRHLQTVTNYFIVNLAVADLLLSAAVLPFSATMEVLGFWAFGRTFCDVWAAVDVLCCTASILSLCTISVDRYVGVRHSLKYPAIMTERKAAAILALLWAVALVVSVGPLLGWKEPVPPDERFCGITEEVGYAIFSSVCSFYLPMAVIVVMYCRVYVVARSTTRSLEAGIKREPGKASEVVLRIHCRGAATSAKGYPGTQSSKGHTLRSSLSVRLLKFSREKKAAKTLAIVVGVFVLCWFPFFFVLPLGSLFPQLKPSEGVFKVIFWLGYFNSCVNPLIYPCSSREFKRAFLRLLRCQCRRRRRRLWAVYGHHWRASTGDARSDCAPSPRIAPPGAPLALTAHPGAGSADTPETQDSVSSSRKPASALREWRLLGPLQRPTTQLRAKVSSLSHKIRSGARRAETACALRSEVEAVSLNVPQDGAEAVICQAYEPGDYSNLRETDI
T2 sequence (P43140 whole entry): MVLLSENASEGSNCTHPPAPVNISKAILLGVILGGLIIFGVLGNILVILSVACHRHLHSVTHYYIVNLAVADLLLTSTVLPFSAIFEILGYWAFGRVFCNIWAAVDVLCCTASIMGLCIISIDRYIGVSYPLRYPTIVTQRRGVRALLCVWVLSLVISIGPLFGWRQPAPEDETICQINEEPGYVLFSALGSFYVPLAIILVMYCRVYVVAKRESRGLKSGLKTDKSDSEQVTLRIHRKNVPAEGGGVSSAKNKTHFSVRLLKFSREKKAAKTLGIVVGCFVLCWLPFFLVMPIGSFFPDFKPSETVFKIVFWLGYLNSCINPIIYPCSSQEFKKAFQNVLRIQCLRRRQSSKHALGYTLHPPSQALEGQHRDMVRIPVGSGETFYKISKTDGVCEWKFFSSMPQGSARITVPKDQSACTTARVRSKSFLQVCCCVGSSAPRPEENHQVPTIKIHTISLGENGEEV

SMILES	Ki [1]	Ki [2]
COc1ccccc1N1CCN(CCCCn2nc(-n3cnc4ccccc43)ccc2=O)CC1	16 nM	1.1 nM
COc1ccccc1N1CCN(CCCn2nc(-n3cnc4ccccc43)ccc2=O)CC1	158.3 nM	6.5 nM
COc1ccccc1N1CCN(CCCn2nc(-n3ccnc3)ccc2=O)CC1	673.4 nM	115.4 nM

The next lines start with the values.

Ki [1]	Ki [2]	SMILES
436.6 nM	48.3 nM	O=c1ccc(-n2ccnc2)nn1CCCN1CCN(c2ccccc2Cl)CC1
44.7 nM	15.2 nM	O=c1ccc(-n2cnc3ccccc32)nn1CCCN1CCN(c2ccccc2Cl)CC1
